Values joined by “and” are separate entries in the source; they are usually repeats but may differ in a detail not shown here. Equal values may be shown once. Toxic doses and inconclusive results are not listed. Rule for the calls: active = survival T/C of 150% or more; inactive = T/C below 125% in these data.
Test system: P388 leukemia ip, CD2F1 mice, survival T/C
Experiment: NCI In Vivo Anticancer Drug Screen. Data for tumor model P388 Leukemia (intraperitoneal) in CD2F1 (CDF1) mice
Conditions: endpoint: median survival time, higher = longer survival
Outline: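 Mice carrying the transplanted tumor received test compound or vehicle. Survival was recorded in each group, and the value is the treated-group measurement divided by that of the vehicle-treated control group.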

[1] = dose: 50.0 mg/kg/injection, schedule: Q01DX005 (ip), vehicle: saline with Tween-80
[2] = dose: 100.0 mg/kg/injection, schedule: Q01DX005 (ip), vehicle: saline with Tween-80
[3] = dose: 200.0 mg/kg/injection, schedule: Q01DX005 (ip), vehicle: saline with Tween-80
[4] = dose: 50.0 mg/kg/injection, schedule: Q04DX003 (ip), vehicle: Klucel (hydroxypropylcellulose) (HPC)
[5] = dose: 100.0 mg/kg/injection, schedule: Q04DX003 (ip), vehicle: Klucel (hydroxypropylcellulose) (HPC)
[6] = dose: 200.0 mg/kg/injection, schedule: Q04DX003 (ip), vehicle: Klucel (hydroxypropylcellulose) (HPC)

Measured: T/C

CC(=O)NS(=O)(=O)c1ccc(N=NC2C(=O)N(C(=O)c3ccc(Cl)cc3)N=C2C)cc1 (centres undefined)
inactive: dose: 1.5 mg/kg/injection, schedule: Q01DX001 (ip), vehicle: saline with Tween-80 100 % of control | dose: 3.0 mg/kg/injection, schedule: Q01DX001 (ip), vehicle: saline with Tween-80 104 % of control | dose: 6.0 mg/kg/injection, schedule: Q01DX001 (ip), vehicle: saline with Tween-80 107 % of control | dose: 12.0 mg/kg/injection, schedule: Q01DX001 (ip), vehicle: saline with Tween-80 100 % of control | dose: 12.5 mg/kg/injection, schedule: Q01DX001 (ip), vehicle: saline with Tween-80 94 % of control

CCCCN(CCCC)CCN1C(=O)c2ccccc2S1(=O)=O
inactive: dose: 50.0 mg/kg/injection, schedule: Q01DX005 (ip), vehicle: saline 104 % of control | dose: 100.0 mg/kg/injection, schedule: Q01DX005 (ip), vehicle: saline 109 % of control | dose: 200.0 mg/kg/injection, schedule: Q01DX005 (ip), vehicle: saline 102 % of control

CN(C)CCCNc1nc(NCCCN(C)C)c2nc(-c3ccccc3)c(-c3ccccc3)nc2n1
inactive: dose: 12.5 mg/kg/injection, schedule: Q01DX005 (ip), vehicle: saline with Tween-80 97 % of control | dose: 25.0 mg/kg/injection, schedule: Q01DX005 (ip), vehicle: saline with Tween-80 88 % of control | [1] 88 % of control

C=CC(O)C(C)C(=O)O (centres undefined)
inactive: dose: 6.25 mg/kg/injection, schedule: Q01DX005 (ip), vehicle: saline 93 % of control | dose: 12.5 mg/kg/injection, schedule: Q01DX005 (ip), vehicle: saline 95 % of control | dose: 25.0 mg/kg/injection, schedule: Q01DX005 (ip), vehicle: saline 90 % of control | [2] 98 % of control | [3] 98 % of control

C/C=C/C1OC(OC)(OC)C1(OC)OC (centres undefined)
inactive: dose: 60.0 mg/kg/injection, schedule: Q01DX005 (ip), vehicle: saline 100 % of control | dose: 120.0 mg/kg/injection, schedule: Q01DX005 (ip), vehicle: saline 100 % of control | dose: 240.0 mg/kg/injection, schedule: Q01DX005 (ip), vehicle: saline 100 % of control

CC1=NN(c2cc(S(=O)(=O)O)ccc2Cl)C(=O)C1N=Nc1ccccc1 (centres undefined)
inactive: dose: 50.0 mg/kg/injection, schedule: Q01DX009 (ip), vehicle: saline 105 % of control | dose: 100.0 mg/kg/injection, schedule: Q01DX009 (ip), vehicle: saline 89 % of control

O=C(CC1(O)C(=O)Nc2ccccc21)c1ccc(Br)cc1 (centres undefined)
inactive: [1] 108 % of control | [2] 103 % of control | [3] 100 % of control

O=C1CCCc2c1ccn2Cc1ccccc1
inactive: dose: 25.0 mg/kg/injection, schedule: Q04DX003 (ip), vehicle: Klucel (hydroxypropylcellulose) (HPC) 105 % of control | [4] 100 % of control | [5] 100 % of control | [6] 99 % of control

CC1(C)O[Se](=O)OC1(C)C
inactive: dose: 1.56 mg/kg/injection, schedule: Q04DX003 (ip), vehicle: saline 103 % of control | dose: 3.12 mg/kg/injection, schedule: Q04DX003 (ip), vehicle: saline 98 % of control | dose: 6.25 mg/kg/injection, schedule: Q04DX003 (ip), vehicle: saline 90 % of control

CC12CCC3C(CCC4CC5OC(=O)CC5CC43C)C1CCC2=O (centres undefined)
inactive: [4] 102 % of control | [5] 107 % of control | [6] 106 % of control | dose: 400.0 mg/kg/injection, schedule: Q04DX003 (ip), vehicle: Klucel (hydroxypropylcellulose) (HPC) 101 % of control

Cn1c(=O)c2c(nc(Br)n2C)n(C)c1=O
inactive: dose: 25.0 mg/kg/injection, schedule: Q01DX009 (ip), vehicle: Klucel (hydroxypropylcellulose) (HPC) 94 % of control | dose: 50.0 mg/kg/injection, schedule: Q01DX009 (ip), vehicle: Klucel (hydroxypropylcellulose) (HPC) 109 % of control

COC(=O)NC1C(C)OC(OC2C/C=C(/C)C3C=CC4C(OC5CC(OC6CC(O)C(OC7CC(O)C(OC)C(C)O7)C(C)O6)C(O)C(C)O5)C(C)CC(C)C4C3(C)/C(O)=C3\C(=O)OC4(CC(C)C(CO)=CC4/C=C\2C)C3=O)CC1(C)[N+](=O)[O-] (centres undefined)
inactive: dose: 50.0 mg/kg/injection, schedule: Q01DX005 (ip), vehicle: Klucel (hydroxypropylcellulose) (HPC) 118 % of control and 123 % of control

Cc1ccc2[nH]c3c(c2c1)-c1ncncc1CC3
inactive: dose: 100.0 mg/kg/injection, schedule: Q04DX002 (ip), vehicle: Klucel (hydroxypropylcellulose) (HPC) 104 % of control | dose: 200.0 mg/kg/injection, schedule: Q04DX002 (ip), vehicle: Klucel (hydroxypropylcellulose) (HPC) 92 % of control

O=C(NC1CC(c2ccccc2)(c2ccccc2)OC1=O)OCc1ccccc1 (centres undefined)
inactive: dose: 12.5 mg/kg/injection, schedule: Q01DX009 (ip), vehicle: saline with Tween-80 90 % of control | dose: 25.0 mg/kg/injection, schedule: Q01DX009 (ip), vehicle: saline with Tween-80 93 % of control | dose: 50.0 mg/kg/injection, schedule: Q01DX009 (ip), vehicle: saline with Tween-80 90 % of control and 93 % of control | dose: 200.0 mg/kg/injection, schedule: Q01DX009 (ip), vehicle: saline with Tween-80 93 % of control

Source: PubChem BioAssay AID330 (DTP/NCI, 2004)
